Measurements published in the SangsterLogP compilation.

Test: method code SF, from DOI: 10.1007/978-3-0348-5795-6_10, PMID: 954948

| SMILES | logP |
| --- | --- |
| S=C=Nc1cccc2ccccc12 | 4.34 |
| Oc1ccc(N=C=S)cc1 | 2.74 |
| S=C=NCc1ccccc1 | 3.16 |
| S=C=NC(c1ccccc1)c1ccccc1 | 5.09 |
| S=C=NC(c1ccccc1)(c1ccccc1)c1ccccc1 | 7.02 |
| CC(N=C=S)c1ccccc1 (centres undefined) | 3.46 |
| S=C=NCc1cccc2ccccc12 | 4.42 |
| S=C=NCCc1ccccc1 | 3.47 |
| CCN=C=S | 1.47 |
| S=C=Nc1ccc2cc3ccccc3cc2c1 | 5.7 |

Next, values leading:

| logP | SMILES |
| --- | --- |
| 4.94 | S=C=Nc1ccc(Nc2ccccc2)cc1 |
| 4.88 | O=C(c1ccccc1)c1ccc(N=C=S)cc1 |
| 4.4 | O=S(c1ccccc1)c1ccc(N=C=S)cc1 (centres undefined) |
| 4.34 | S=C=Nc1ccc2ccccc2c1 |
| 4.75 | S=C=Nc1ccc(Oc2ccccc2)cc1 |
| 4.66 | S=C=Nc1ccc(-c2ccccc2)cc1 |
| 5.55 | S=C=Nc1ccc(/N=N/c2ccccc2)cc1 |
| 4.9 | O=C(Oc1ccc(N=C=S)cc1)c1ccccc1 |
| 4.4 | S=C=Nc1ccc(Cc2ccccc2)cc1 |
